Laboratory results: patent US11899022B2, “Multiplexed proteomics and predictive drug candidate assessment” (The General Hospital Corporation, priority 2017, dated 2024)

Assays:
[1] = tested on: breast cancer cell lines with dysregulated centromere complex; assay: Drug response (AUC) of cell lines with vs without dysregulation in the centromere complex; assay type: cell-based; settings: 41 breast cancer cell lines, AUC ratio, FIG. 32B
Procedure: (§1) The drug candidates were screened at different concentrations, and the response to each drug candidate was measured as an area under the curve (AUC). Three known complexes—the BRCA1-associated genome surveillance complex, the centromere, and the proteasome—were selected from the CORUM database, and for each complex, the cell lines evaluated were separated into a first group in which cell lines carried dysregulated protein-protein interactions on any of the proteins in the complex, and a second group in which cell lines carried no dysregulations on any of the proteins in the complex.
(§2) Each figure is a plot showing how protein-protein interaction dysregulation in one of the selected complexes affects the responses of the evaluated breast cancer cell lines to different drug candidates. In each plot, every data point represents a different drug candidate. The horizontal axis in each plot represents the base 2 logarithm of the ratio of the drug candidate response in cell lines with dysregulation to the drug candidate response in cell lines without dysregulation. The vertical axis in each plot, which corresponds to the base 10 logarithm of the Grubbs test p-value, represents the significance of the drug candidate response difference.

[2] = tested on: breast cancer cell lines with dysregulated proteasome complex; assay: Drug response (AUC) of cell lines with vs without dysregulation in the proteasome complex; assay type: cell-based; settings: 41 breast cancer cell lines, AUC ratio, FIG. 32C
Procedure: as §1
as §2, with “difference. […]” for “difference.”

[3] = target: T1, polo-like Kinase 4 (PLK4) (Homo sapiens, UniProt O00444); settings: cited from earlier work
T1 sequence (O00444 1-970): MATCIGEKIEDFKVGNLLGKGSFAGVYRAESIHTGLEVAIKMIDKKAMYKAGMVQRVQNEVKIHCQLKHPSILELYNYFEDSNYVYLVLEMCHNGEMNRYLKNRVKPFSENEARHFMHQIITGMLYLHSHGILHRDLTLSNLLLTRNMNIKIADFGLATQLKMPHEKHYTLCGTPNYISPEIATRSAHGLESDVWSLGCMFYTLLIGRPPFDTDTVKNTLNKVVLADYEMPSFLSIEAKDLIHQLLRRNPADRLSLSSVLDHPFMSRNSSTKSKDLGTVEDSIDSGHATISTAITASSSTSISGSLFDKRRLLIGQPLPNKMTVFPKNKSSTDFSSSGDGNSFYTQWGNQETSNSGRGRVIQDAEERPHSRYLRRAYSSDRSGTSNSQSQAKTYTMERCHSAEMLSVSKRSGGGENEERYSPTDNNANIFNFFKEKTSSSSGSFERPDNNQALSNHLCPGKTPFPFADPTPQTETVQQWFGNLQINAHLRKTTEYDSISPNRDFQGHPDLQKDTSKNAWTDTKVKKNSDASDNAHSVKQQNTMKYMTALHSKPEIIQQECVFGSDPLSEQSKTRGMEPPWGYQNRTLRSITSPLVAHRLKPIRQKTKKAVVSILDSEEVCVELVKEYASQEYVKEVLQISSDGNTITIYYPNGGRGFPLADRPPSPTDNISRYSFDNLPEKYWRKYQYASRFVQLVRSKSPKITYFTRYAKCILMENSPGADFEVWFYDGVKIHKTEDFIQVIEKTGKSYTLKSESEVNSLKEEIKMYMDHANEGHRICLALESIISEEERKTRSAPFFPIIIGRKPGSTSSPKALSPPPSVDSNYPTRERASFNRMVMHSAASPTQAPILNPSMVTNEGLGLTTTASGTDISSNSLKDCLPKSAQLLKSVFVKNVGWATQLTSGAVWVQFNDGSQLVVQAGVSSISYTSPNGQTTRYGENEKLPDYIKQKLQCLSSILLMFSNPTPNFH

[4] = tested on: Aurora Kinases; settings: cited from earlier work
[5] = tested on: H3122 cell line; assay: Ceritinib sensitivity of parental H3122 cell line; assay type: cell-based; settings: Homo sapiens, NCI-H3122; ALK-positive H3122 parental cell line
Procedure: (§3) In the particular study reported here, resistance to the small molecule ALK inhibitor Ceritinib was studied. The patient-derived cell line H3122 is a NSCLC line with an EML4-ALK fusion, and it is sensitive to Ceritinib. To simulate the clinical development of therapeutic resistance following initial treatment, this cell line was cultured over a period of 6 months with low but increasing doses of Ceritinib. […] These clones were expanded and comprise the cell lines LDKR1-4.
(§4) FIG. 5 is a schematic diagram showing the development of the cell lines.

[6] = target: ALK (Homo sapiens, UniProt Q9UM73); assay: Proteomic/phosphoproteomic profiling of ALK phosphorylation after Ceritinib treatment; assay type: cell-based
Chain of ALK (Q9UM73 with tags, fused parts or gaps): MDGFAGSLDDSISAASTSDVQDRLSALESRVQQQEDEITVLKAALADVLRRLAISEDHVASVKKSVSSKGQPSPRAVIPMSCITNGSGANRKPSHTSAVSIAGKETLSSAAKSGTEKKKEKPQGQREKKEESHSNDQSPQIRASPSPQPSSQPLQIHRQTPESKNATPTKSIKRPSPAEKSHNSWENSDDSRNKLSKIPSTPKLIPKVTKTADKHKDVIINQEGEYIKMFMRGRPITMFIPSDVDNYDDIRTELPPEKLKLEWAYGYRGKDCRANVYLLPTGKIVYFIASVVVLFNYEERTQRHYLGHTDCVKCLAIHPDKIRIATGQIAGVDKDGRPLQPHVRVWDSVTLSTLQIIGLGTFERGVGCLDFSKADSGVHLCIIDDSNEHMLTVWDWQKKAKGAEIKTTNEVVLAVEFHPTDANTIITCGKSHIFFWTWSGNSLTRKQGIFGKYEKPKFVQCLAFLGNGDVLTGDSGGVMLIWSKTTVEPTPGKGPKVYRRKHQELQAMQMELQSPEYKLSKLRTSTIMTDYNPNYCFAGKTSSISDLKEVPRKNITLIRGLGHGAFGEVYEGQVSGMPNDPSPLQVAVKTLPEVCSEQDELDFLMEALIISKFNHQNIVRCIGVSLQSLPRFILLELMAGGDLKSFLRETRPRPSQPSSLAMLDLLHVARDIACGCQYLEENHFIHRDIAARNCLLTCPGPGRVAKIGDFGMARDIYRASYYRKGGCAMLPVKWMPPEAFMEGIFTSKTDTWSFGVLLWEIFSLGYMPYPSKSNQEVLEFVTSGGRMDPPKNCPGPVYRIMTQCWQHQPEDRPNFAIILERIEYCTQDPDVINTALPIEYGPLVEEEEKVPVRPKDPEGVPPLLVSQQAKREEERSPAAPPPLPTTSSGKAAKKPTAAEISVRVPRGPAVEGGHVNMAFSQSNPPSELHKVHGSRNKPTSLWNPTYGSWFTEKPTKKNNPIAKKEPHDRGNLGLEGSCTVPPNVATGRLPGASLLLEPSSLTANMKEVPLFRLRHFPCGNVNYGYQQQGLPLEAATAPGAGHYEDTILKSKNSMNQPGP
Procedure: The H3122 parental and LDKR1-4 cell lines were each grown in culture with or without the addition of Ceritinib for 24 hours, and harvested cells were subsequently processed for both proteomic and phosphoproteomic analyses. Specifically, each of the cell lines was cultured in RPMI-1640 media supplemented with 10% FBS, 100 units/mL penicillin, and 100 μg/mL streptomycin. Cells were treated for 24 hours with 300 nM Ceritinib (also known as LDK378). Cells were collected, and the cell pellets were resuspended in mammalian lysis buffer and lysed by passage through a 21 gauge needle. The lysate was centrifuged at 15,000×g for 5 minutes at 4° C., and insoluble debris was discarded.
The lysates were then prepared for mass spectrometry analysis. Samples were reduced with DTT, alkylated with iodoacetamide, and precipitated with methanol/chloroform. […] Samples were quenched with 1% TFA and desalted using Sep-Pak C18 (SPE) cartridges (obtained from Waters Corp., Milford, MA). The peptide concentration of each sample was determined using a BCA assay.
For phosphoproteomic analysis, 2.0 mg of digested peptides were enriched for phosphopeptides using titanium dioxide beads, labeled with TMT10-plex reagents, and further enriched with a phosphotyrosine antibody. Specifically, 8 mg of titanium dioxide beads were incubated with the peptide in binding buffer (2 M lactic acid in 50% ACN/50% H2O) for 1 hour with gentle shaking. […] Samples were acidified and desalted over Sep-Pak C18 SPE cartridges.

[7] = tested on: LDKR1-4 cell lines; assay: Ceritinib sensitivity of resistant clones LDKR1-4; assay type: cell-based
Procedure: as §3, §4

[8] = tested on: breast cancer cell lines with dysregulated BRCA1-associated genome surveillance complex; assay: Drug response (AUC) of cell lines with vs without dysregulation in the BRCA1-associated genome surveillance complex; assay type: cell-based; settings: 41 breast cancer cell lines, AUC ratio dysregulated/not dysregulated, FIG. 32A
Procedure: as §1, §2

[9] = parental H3122, 300 nM Ceritinib, 24 hours, ratio to parental with no drug

For `C#Cc1cccc(Nc2ncnc3cc(OC)c(OCCCCCCC(=O)NO)cc23)c1` [CUDC-101], the “effect of dysregulation in the centromere complex on cell line response to drug” value [1] was “sensitize”.

In the case of `CC(C)C[C@H](NC(=O)[C@H](CCc1ccccc1)NC(=O)CN1CCOCC1)C(=O)N[C@@H](Cc1ccccc1)C(=O)N[C@@H](CC(C)C)C(=O)[C@@]1(C)CO1` [Carfilzomib], the “effect of dysregulation in the proteasome complex on cell line response to drug” value [2] is reported as “densensitized”.

In the case of `COc1cc2c(Oc3ccc(NC(=O)C4(C(=O)Nc5ccc(F)cc5)CC4)cc3F)ccnc2cc1OCCCN1CCOCC1` [XL-880, foretinib], the “inhibition of polo-like Kinase 4 (PLK4)” value [3] is given as “inhibits” and the “inhibition of Aurora Kinases” value [4] is given as “potently inhibit”.

In the case of `Cc1cc(Nc2nc(N[C@@H](C)c3ncc(F)cn3)ncc2Cl)n[nH]1` [AZD1480], the “inhibition of Aurora Kinases” value [4] is given as “potently inhibit”.

With `Cc1cc(Nc2ncc(Cl)c(Nc3ccccc3S(=O)(=O)C(C)C)n2)c(OC(C)C)cc1C1CCNCC1` [Ceritinib] the IC50 [5] was 53 nM, the “inhibition of ALK activity in resistant cell lines” value ([6]; LDKR1-4, Ceritinib treatment) was “continued to be effective at inhibiting ALK activity in at least three of the four resistant cell lines” and the “ALK Thr 1506/Tyr 1507/Ser 1509 phosphorylation upon drug treatment” value [6, 9] was “decreasing fourfold”. The “ALK Tyr 1078 phosphorylation upon drug treatment” value [6, 9] was “decreased”, the “IC50 relative to the parental sensitive cell line” value ([7]; four resistant clones vs parental H3122) was “at least twenty times higher” and the IC50 ([7]; resistant clones LDKR1-4) was 1490 to 3900 nM.

For `NC(=O)Nc1sc(-c2ccc(F)cc2)cc1C(N)=O` [TPCA-1], the “inhibition of Aurora Kinases” value [4] is listed as “potently inhibit”.

For `O=C(CCCCCCNC(=O)c1cnc(N(c2ccccc2)c2ccccc2)nc1)NO` [ACY-1215], the “effect of dysregulation in the centromere complex on cell line response to drug” value [1] was “sensitize”.

With `O=C(/C=C/c1ccc(CN(CCO)CCc2c[nH]c3ccccc23)cc1)NO` [LAQ824] the “effect of dysregulation in the centromere complex on cell line response to drug” value [1] was “sensitize”.

With Bleomycin the “effect of dysregulation in the genome surveillance complex on cell line response to drug” value [8] was “sensitize”.

In the case of `Nc1ccn([C@@H]2O[C@H](CO)[C@@H](O)C2(F)F)c(=O)n1` [Gemcitabine], the “effect of dysregulation in the genome surveillance complex on cell line response to drug” value [8] is reported as “sensitize”.
